Measurements published in EP0445156B1, “AGENTS FOR TREATING CHRONIC INFLAMMATORY DISEASES OF THE INTESTINES” (HENNING BERLIN GmbH CHEMIE- UND PHARMAWERK, priority 1988, dated 1990).
≈ marks a conversion by molar mass, not a printed value. Like-named read-outs stand apart in the source and are kept apart here.

What was measured:
[1] = system: durch TNB (Trinitrobenzoesulfonsäure) ausgelösten Colitis der Ratte; assay: Histological proof of the anti-inflammatory effect in TNB-induced colitis of the rat; type: in vivo; conditions: 25 mg TNB rektal, 5 mg oral über Schlundsonde im Abstand von 8 Stunden, 3. - 21. Tag, TNB alone: Grad II - III
Experimental: (§1) Bei 10 Ratten (Körpermaße: 200-250 g) wurde durch rektale Instillation von 25 mg TNB (in 0,25 ml 30%iger ethanolischer Lösung) eine Colitis ausgelöst. Eine in gleicher Weise behandelte Gruppe von 10 Tieren erhielt vom 3. - 21. Tage nach der TNB-Gabe im Abstand von 8 Stunden 5 mg Oxipurinol-Na, das in 0,5 ml Glucoselösung aufgelöst war, oral über eine Schlundsonde verabreicht. Eine weitere Gruppe von 10 Tieren erhielt lediglich 0,25 ml der 30%igen Ethanollösung rektal instilliert, und weitere 10 Tiere dienten als Kontrolle.
Der Darm (Rectum) der mit TNB behandelten Tiere zeigte eine chronisch-rezidivierende Colitis Grad II - III. Bei einigen Tieren wurden inkomplette Erosionen, insbesondere in den über den Lymphfollikeln gelegenen Stellen des Oberflächenepithels, sehr dichte Infiltrate in der Submukosa und reichlich perivaskulär gelegene Mastzellen im umgebenden Fettgewebe, beobachtet. Die mit TNB und Oxipurinol-Na behandelten Tiere zeigten deutlich geringer ausgeprägte Entzündungemerkmale (Grad I): eine geringfügige Vermehrung von Lymphozyten und Mastzellen sowie ein geringes Ödem.

[2] = Stability of the solid salt (air, drying temperature); type: physicochemical
Experimental: Das Salz ist luftbeständig und verträgt Trockentemperaturen bis etwa 70°C. Aus seiner heißen Lösung läßt sich mit verdünnter Salzsäure (10%ig) Oxipurinol fast quantitativ ausfällen.

[3] = system: durch TNB (Trinitrobenzoesulfonsäure) ausgelösten Colitis der Ratte; assay: Biochemical proof of the anti-inflammatory effect in TNB-induced colitis of the rat (purine nucleotides, TBA-RS in gut samples); type: in vivo; conditions: 21. Tag, 5 mg oral every 8 h, day 3-21
Experimental: as §1
Bei den im Beispiel 13 charakterisierten Tiergruppen wurden am 21. Tag Darmproben auf den Gehalt an Purinnukleotiden und Lipidperoxydationsprodukten (Thiobarbitursäure-reaktive Substanzen: TBA-RS) hin untersucht.
Die nach TNB-Applikation erhöhte Konzentration von TBA-RS wird durch Oxipurinol-Na-Zugabe auf46 % gesenkt und liegt damit sogar noch unter den Kontrollwerten. Danach verhindert Oxipurinol-Na den durch TNB ausgelösten Abfall der Adenin-'und Guaninnukleotide und die gesteigerte Lipidperoxydation.

Solubility = type: physicochemical; conditions: read-out: Löslichkeit
Experimental: (§2) Bei diesem Natrium-Salz handelt es sich um Mono-Natriumoxipurinol-Monohydrat. Das Salz ist weiß und kristallisiert in feinen Nadeln. In wäßriger Lösung reagiert es alkalisch, eine 5%ige Lösung besitzt einen pH-Wert von 9,7. Seine Löslichkeit beträgt: in Wasser bei 25°C 15,8 g/l 0°C 7,2 g/l in Methanol/Wasser (3:1 Vol.) bei 25°C ca. 2,0 g/l

pH of aqueous solution = type: physicochemical; conditions: 5%ige wäßrige Lösung
From the text: Aus der DE-OS 37 07 999 ist bekannt, Oxipurinol zur Verminderung von Zellschäden nach der Ischämie und vor der Reperfusion zu verwenden, und zwar durch intravenöse Verabreichung eines Alkalimetallsalzes, insbesondere des Natriumsalzes. Aus den Beispielen geht jedoch hervor, daß nicht das reine Natriumsalz verwendet wurde, sondern ein Gemisch aus Salz und überschüssiger Natronlauge. Dies ergibt sich vor allem aus den pH-werten der ca. 1 bis 2%-igen Lösungen von 11,5 bzw. 12,0. Das jetzt erstmals von der Anmelderin in reiner und kristalliner Form hergestellte Natriumsalz besitzt in 5%-iger wäßriger Lösung einen pH-wert von 9,7 und kristallisiert als Monohydrat aus.
as §2

[4] = general statement, no solvent or temperature given; cited from earlier work

| Luftbeständigkeit [2] | verträgt Trockentemperaturen ([2]; drying) [°C] | solubility (Solubility; methanol/water (3:1 vol.), organic solvent or mixture, in Methanol/Wasser (3:1 Vol.) bei 25°C) [mg/mL] | solubility (Solubility; water, in Wasser bei 0°C) [mg/mL] | solubility (Solubility; water, in Wasser bei 25°C) [mg/mL] | pH-Wert (pH of aqueous solution) | SMILES | Entzündungsmerkmale / Colitis Grad (Rectum, histologisch) [1] | Gehalte an Adenin- und Guaninnukleotiden (Darmproben) versus Ethanol- und Kontrollgruppe [3] | Löslichkeit (in words) [4] |
| --- | --- | --- | --- | --- | --- | --- | --- | --- | --- |
| luftbeständig | ≤ 70 | ~2 (≈ 13.1 mM) | 7.2 (≈ 47.3 mM) | 15.8 (≈ 104 mM) | 9,7 | O=c1[nH]c(=O)c2cn[nH]c2[nH]1 [Oxipurinol-Natrium, Mono-Natriumoxipurinol-Monohydrat] | Grad I | unterschieden sich nicht signifikant |  |
|  |  |  |  |  |  | O=c1[nH]c(=O)c2c[nH]nc2[nH]1 [Oxipurinol] |  |  | sehr schwer löslich |
